This assay has as its target T1, LAC3 (Trametes sp. C30, UniProt Q6TH77).
T1 construct: lac3 cDNA in pYES-DEST52 under GAL1 promoter, secreted by Saccharomyces cerevisiae W303-1A; 501 aa, calc
T1 sequence (Q6TH77 24-524): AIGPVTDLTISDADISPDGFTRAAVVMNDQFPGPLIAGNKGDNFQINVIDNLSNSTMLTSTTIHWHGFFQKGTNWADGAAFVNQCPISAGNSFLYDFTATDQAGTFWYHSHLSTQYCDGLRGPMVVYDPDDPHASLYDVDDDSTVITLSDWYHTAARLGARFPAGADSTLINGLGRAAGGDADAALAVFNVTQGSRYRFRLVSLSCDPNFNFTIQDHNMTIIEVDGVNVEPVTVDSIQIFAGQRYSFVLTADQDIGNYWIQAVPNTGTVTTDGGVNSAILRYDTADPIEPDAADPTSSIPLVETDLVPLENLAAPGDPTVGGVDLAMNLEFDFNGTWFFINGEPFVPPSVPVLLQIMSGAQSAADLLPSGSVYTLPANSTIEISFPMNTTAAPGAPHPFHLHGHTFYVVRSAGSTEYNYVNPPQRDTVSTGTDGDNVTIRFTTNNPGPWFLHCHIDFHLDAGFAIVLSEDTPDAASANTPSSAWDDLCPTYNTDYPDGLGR
Put plainly: brown halo on agar plate. It counts as cell-based. As to conditions: secreted recombinant enzyme, selective medium SGal URA.

For the molecule `COc1ccccc1O` [2-methoxyphenol], the “brown halo on agar plate” value is on record as “brown coloration resulting from the oxidation of the substrate 2-methoxyphenol by laccases”.
